From patent US20140357655A1, “SPIROINDOLINE DERIVATIVES AS GONADOTROPIN- RELEASING HORMONE RECEPTOR ANTAGONISTS” (Bayer Intellectual Property GmbH, priority 2012, published 2014) come the findings set out here.

For one data set, the target named is T1, human GnRH receptor (Homo sapiens, UniProt P30968).
T1 sequence (P30968 1-328): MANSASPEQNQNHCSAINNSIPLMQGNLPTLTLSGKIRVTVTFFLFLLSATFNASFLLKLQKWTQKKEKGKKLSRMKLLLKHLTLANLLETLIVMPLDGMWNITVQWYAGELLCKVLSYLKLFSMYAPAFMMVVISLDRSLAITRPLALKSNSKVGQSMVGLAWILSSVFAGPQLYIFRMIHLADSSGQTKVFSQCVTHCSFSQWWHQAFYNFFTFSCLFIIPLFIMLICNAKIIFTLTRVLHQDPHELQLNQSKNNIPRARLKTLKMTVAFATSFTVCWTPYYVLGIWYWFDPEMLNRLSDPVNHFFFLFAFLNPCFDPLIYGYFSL
Nature of the data set: IP-One HTRF assay with buserelin (at EC80) stimulation. The class given is cell-based. Particulars: CHO cells stably expressing human GnRH receptor, read-out: Potency in IP-One HTRF assay, given as IC50. The procedure, abridged: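 Ten-point duplicate titrations (20 μM to 1 nM) were fitted by 4-parameter model to normalized 665/620 nm HTRF ratios, 0% = no compound, 100% = no agonist. Assay measured IP1 accumulation in human GnRH-R CHO cells stimulated 1 h at 37° C with EC80 buserelin, then lysed 1 h at 22° C.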
Background: In TR-FRET formats the signal depends on donor and acceptor labels being close together.

For a further data set, the target named is T2, human GnRHR (Homo sapiens, UniProt P30968).
T2 construct: host or cells: HEK293 (transient transfection), purchased as frozen labelled cells
T2 sequence (P30968 1-328): T1 sequence (P30968 1-328)
Nature of the data set: Tag-Lite receptor binding assay. Particulars: Hek293 cells transiently transfected with human GnRHR; green-labelled GnRHR binding peptide; read-out: Potency in receptor binding assay using TAG-LITE technology, given as IC50. The text has this:
This binding assay is based on the fluorescence resonance energy transfer between fluorescence donor labelled human GnRHR and a green-labelled GnRHR binding peptide. Compounds interfering with the ligand binding side of the human GnRHR will replace the labelled peptide resulting in a signal decrease. The assay principle was established by Cisbio Bioassays (Bagnols-sur-Cèze Cedex, France) and further details are available on their homepage.
The assay procedure was further optimized for use in-house with reduced assay volumes. Frozen Hek293 cells, transiently transfected with human GnRHR and Terbium-labelling of the receptor, were supplied by Cisbio Bioassays as well as Tag-Lite buffer and green-labelled GnRHR binding peptide. Cells were thawed and transferred to cold Tag-Lite buffer. A volume of 8 μl of this cell suspension were added to 100 nl of a 160-fold concentrated solution of the test compound in DMSO pre-dispensed in a well of a white low-volume 384-well microtiter plate (Greiner Bio-One, Frickenhausen, Germany). The mixture was incubated for 5 min at room temperature. In the next step either 4 μl Tag-Lite buffer or as control 4 μl of an exceeding amount unlabelled binding peptide in Tag-Lite buffer were transferred to the mixture. The green-labelled GnRHR binding peptide was added in a final step at EC50 in a volume of 4 μl Tag-Lite buffer. After an incubation of 1 h at room temperature plates were measured in a microplate reader, e.g. a PHERAstar (BMG Labtechnologies, Offenburg, Germany) by using a specific optic module.
A ratio from the fluorescence emissions at 520 nm (green fluorescence) and at 490 nm (background signal of Terbium-labelled GnRHR) was calculated and the data were normalized (reaction without test compound=0% inhibition of binding of green-labelled peptide; reaction without test compound with exceeding amount unlabelled binding peptide=100% inhibition of binding of green-labelled peptide). On the same microtiter plate, compounds were tested at 10 different concentrations in the range of 12.5 μM to 0.64 nM (12.5 μM, 4.2 μM, 1.4 μM, 0.46 μM, 0.15 μM, 51 nM, 17 nM, 5.7 nM, 1.9 nM and 0.64 nM; dilution series prepared before the assay at the level of the 160-fold conc. stock solutions by serial 1:3 dilutions in 100% DMSO) in duplicate values for each concentration. By using an in-house software, the IC50 values were calculated by a 4 parameter fit.

For the next data set, the system named is serum LH. Description: LH suppression in the ovariectomized rat. In kind it is in vivo. The following applies: ovariectomized rats; for LH suppression: at 6 hours. The text has this: The in vivo potency of GnRH antagonists can be quantified by a LH suppression test in ovariectomized rats. GnRH triggers the LH release from the pituitary mediated by GnRH receptors. Ovarectomy of adult female rats results in elevated levels of circulating LH due to a lack of negative feedback by gonadal steroids. GnRH antagonists suppress the release of LH and accordingly suppression of LH levels can be used to quantify the in vivo potency of GnRH antagonists.
(§1) Female adult rats were ovariectomized surgically and they were allowed to recover for at least one week. The animals received 1 mg/kg, 10 mg/kg or 30 mg/kg of Example 14.1 by single per oral administration. For comparison reasons a vehicle control and a positive control, 0.1 mg/kg cetrorelix i.p., were given once. At 0 min, 15 min, 30 min, 1 hour, 2 hours, 6 hours and 24 hours after compound administration blood was taken from the retro orbital plexus (n=6 per blood withdrawal) for the measurement of serum LH and serum compound levels.

Data set [1] in a line: Serum compound levels in ovariectomized rats. In kind it is in vivo. The following applies: female, rat, read-out: serum compound level. Here is the method:
as §1

Like-named read-outs stand apart in the source and are kept apart here. Square brackets hold non-standard residues; d marks the D form. Peptide text beside a SMILES is read from it. dPhe(4-Cl) = N[C@H](Cc1ccc(Cl)cc1)C(=O)O; d2Nal = N[C@H](Cc1ccc2ccccc2c1)C(=O)O; dCit = NC(=O)NCCC[C@@H](N)C(=O)O; d3Pal = N[C@H](Cc1cccnc1)C(=O)O

One may read the IC50 as the point on the concentration scale where inhibition reaches its midpoint. Turning to `O=C(NCc1ccccc1Cl)c1ccc2c(c1)C1(CC[S+]([O-])CC1)C(C1CC1)N2S(=O)(=O)c1ccc(F)cc1` (single isomer, unassigned) [Example 13.1, N-(2-Chlorobenzyl)-2-cyclopropyl-1-[(4-fluorophenyl)sulfonyl]-1,2,2′,3′,5′,6′-hexahydrospiro[indole-3,4′-thiopyran]-5-carboxamide 1′-oxide], the IC50 at human GnRH receptor came out at 12 nM; on human GnRHR, 8.5 nM.

Consider `O=C(NCc1ncccc1Cl)c1ccc2c(c1)C1(CCS(=O)(=O)CC1)C(C1CC1)N2S(=O)(=O)c1ccc(F)cc1` (single isomer, unassigned) [Example 14.1, N-[(3-Chloropyridin-2-yl)methyl]-2-cyclopropyl-1-[(4-fluorophenyl)sulfonyl]-1,2,2′,3′,5′,6′-hexahydrospiro[indole-3,4′-thiopyran]-5-carboxamide 1′,1′-dioxide], for which the values for the LH suppression with serum LH (1 mg/kg single per oral), in the data set with serum LH (10 mg/kg single per oral) and in the data set with serum LH (30 mg/kg single per oral) were 11%, 89% and 88%, respectively. Moreover, the “in vivo activity (conclusion in words)” value in the data set with serum LH (per oral) is recorded as “orally active GnRH antagonist in vivo”. In addition, the IC50 at human GnRH receptor amounted to 104 nM; on human GnRHR, 20 nM. The concentration at 6 h was found to be 40 nM in data set [1] (1 mg/kg per oral), 770 ± 200 nM in data set [1] (10 mg/kg per oral) and 1840 ± 530 nM in data set [1] (30 mg/kg per oral).

Consider `O=C(NCc1ccccc1Cl)c1ccc2c(c1)C1(CCS(=O)(=O)CC1)C(C1CC1)N2S(=O)(=O)c1ccc(F)cc1` (single isomer, unassigned) [Example 18.1, N-(2-chlorobenzyl)-2-cyclopropyl-1-[(4-fluorophenyl)sulfonyl]-1,2,2′,3′,5′,6′-hexahydrospiro[indole-3,4′-thiopyran]-5-carboxamide 1′,1′-dioxide], for which the values for the IC50 at human GnRH receptor and at human GnRHR were 26 nM and 11 nM, respectively.

For the compound `O=C(NCc1ccccc1C(F)F)c1ccc2c(c1)C1(CCS(=O)(=O)CC1)C(C1CC1)N2S(=O)(=O)c1ccc(F)cc1` (single isomer, unassigned) [Example 68.1, 2-cyclopropyl-N-[2-(difluoromethyl)benzyl]-1-[(4-fluorophenyl)sulfonyl]-1,2,2′,3′,5′,6′-hexahydrospiro[indole-3,4′-thiopyran]-5-carboxamide 1′,1′-dioxide], the IC50 on human GnRH receptor is 4.2 nM; at human GnRHR it was 9.5 nM.

Turning to `O=C(Nc1cccc(Cl)c1)c1ccc2c(c1)C1(CCS(=O)(=O)CC1)C(C1CC1)N2S(=O)(=O)c1ccc(F)cc1` (stereo not drawn) [Example 24, N-(3-chlorophenyl)-2-cyclopropyl-1-[(4-fluorophenyl)sulfonyl]-1,2,2′,3′,5′,6′-hexahydrospiro[indole-3,4′-thiopyran]-5-carboxamide 1′,1′-dioxide], the figures for the IC50 at human GnRH receptor and at human GnRHR were 264 nM and 187 nM, respectively.

Consider `O=C(Nc1ccccc1Cl)c1ccc2c(c1)C1(CCS(=O)(=O)CC1)C(C1CC1)N2S(=O)(=O)c1ccc(F)cc1` (stereo not drawn) [Example 67, N-(2-chlorophenyl)-2-cyclopropyl-1-[(4-fluorophenyl)sulfonyl]-1,2,2′,3′,5′,6′-hexahydrospiro[indole-3,4′-thiopyran]-5-carboxamide 1′,1′-dioxide], for which the IC50 on human GnRH receptor was 113 nM; on human GnRHR, 154 nM.

Regarding `N#Cc1ccc(S(=O)(=O)N2c3ccc(C(=O)Nc4ccccc4F)cc3C3(CCS(=O)(=O)CC3)C2C2CC2)cc1` (stereo not drawn) [Example 75, 1-[(4-cyanophenyl)sulfonyl]-2-cyclopropyl-N-(2-fluorophenyl)-1,2,2′,3′,5′,6′-hexahydrospiro[indole-3,4′-thiopyran]-5-carboxamide 1′,1′-dioxide], the IC50 was 53 nM at human GnRH receptor and 30 nM at human GnRHR.

As for `O=C(Nc1ccc2c(c1)C1(CCS(=O)(=O)CC1)C(C1CC1)N2S(=O)(=O)c1ccc(F)cc1)C1CCCCC1` (stereo not drawn) [Example 98, N-{2-cyclopropyl-1-[(4-fluorophenyl)sulfonyl]-1′,1′-dioxido-1,2,2′,3′,5′,6′-hexahydrospiro[indole-3,4′-thiopyran]-5-yl}cyclohexanecarboxamide], the IC50 at human GnRH receptor worked out at 39 nM.

On to `O=C(Nc1ccc2c(c1)C1(CCS(=O)(=O)CC1)C(C1CC1)N2S(=O)(=O)c1ccc(F)cc1)C1CCCC1` (stereo not drawn) [Example 99, N-{2-cyclopropyl-1-[(4-fluorophenyl)sulfonyl]-1′,1′-dioxido-1,2,2′,3′,5′,6′-hexahydrospiro[indole-3,4′-thiopyran]-5-yl}cyclopentanecarboxamide], for which the half-maximal inhibitory concentration (IC50) at human GnRH receptor was found to be 300 nM.

`CC(=O)N[C@H](Cc1ccc2ccccc2c1)C(=O)N[C@H](Cc1ccc(Cl)cc1)C(=O)N[C@H](Cc1cccnc1)C(=O)N[C@@H](CO)C(=O)N[C@@H](Cc1ccc(O)cc1)C(=O)N[C@H](CCCNC(N)=O)C(=O)N[C@@H](CC(C)C)C(=O)N[C@@H](CCCNC(=N)N)C(=O)N1CCC[C@H]1C(=O)N[C@H](C)C(N)=O` [cetrorelix, reference compound] (Ac-[d2Nal][dPhe(4-Cl)][d3Pal]SY[dCit]LRP[dA]-NH2) displayed an LH suppression in the data set with serum LH (0.1 mg/kg i.p.) of 91%.
